Assay results: patent US5939458A, “Reduction of hair growth” (priority 1997, dated 1999)

Assays:
[1] = tested on: flank organ hair growth; test: Golden Syrian hamster assay (flank organ hair mass after thirteen topical applications); assay type: in vivo
Source text: Male intact Golden Syrian hamsters are considered acceptable models for human beard hair growth in that they display oval shaped flank organs, one on each side, each about 8 mm. in major diameter, which grow thick black and coarse hair similar to human beard hair. These organs produce hair in response to androgens in the hamster. To evaluate the effectiveness of a composition including an aminoacyl-tRNA synthetase inhibitor, the flank organs of each of a group of hamsters are shaved. To one organ of each animal 10 μl. of vehicle alone once a day is applied, while to the other organ of each animal an equal amount of vehicle containing a aminoacyl-tRNA inhibitor is applied. After thirteen applications (one application per day for five days a week), the flank organs are shaved and the amount of recovered hair (hair mass) from each is weighed. Percent-reduction of hair growth is calculated by subtracting the hair mass (mg) value of the test compound treated side from the hair mass value of the vehicle treated side; the delta value obtained is then divided by the hair mass value of the vehicle treated side, and the resultant number is multiplied by 100.
The above-described assay will be referred to herein as the "Golden Syrian hamster" assay. Preferred compositions provide a reduction in hair growth of at least about 25%, more preferably at least about 50%, and most preferably at least about 60% when tested in the Golden Syrian hamster assay.

[2] = tested on: Leucine tRNA synthetase (hair follicle extract); test: Hair follicle aminoacyl-tRNA synthetase inhibition, 14C leucine incorporation; assay type: biochemical; details: 0.96 μmole/ml inhibitor (leucinamide: similar concentration); 37° C., 60 minutes
Description: Inhibition of hair follicle aminoacyl-tRNA synthetase was determined using a modification of the procedure described by Hampel et. al (Aminoacyl-tRNASynthetases from Cultured CHO Cells (1979) Methods in Enzymology, Vol. LIX, pp 229-234). A reaction mixture containing the following was used for each assay: 50 mM Tris (pH 7.4), 15 mM MgCl2, 0.5 mM EDTA (adjusted to pH 7), 5 mM ATP (adjusted to pH 7, 0.35 mM CTP, 20 μM ^14 C amino acid and tRNA (50 μg/ml). Leucine and serine tRNA synthetase were assayed with a pH 8.6 buffer and a MgCl2 concentration of 8 mM. The reaction mixture is mixed with the hair follicle extract so that the final assay volume is 100 μl. Typically, 90-95 μl of the reaction mixture was mixed with 5-10 μl of the hair follicles extract. The reaction was carried out at 37° C. for 60 minutes. The reaction was terminated by removing the reaction mixture and placing it on a piece of filter paper that had been soaked with 10% trichloroacetic acid. The filter paper was washed 3 times in 10% trichloroacetic acid and 3 times in 5% trichloroacetic acid. The filter paper was dried and the insoluble radioactivity, corresponding to the ^14 C-aminoacyl-tRNA, was counted in a scintillation counter.
The incorporation of the ^14 C amino acid varied from 178 dpm/mM to 3,093 dpm/mM in the assays of the amino acids mentioned above. […]

[3] = Table 1, dose 15%, vehicle B, pH 6.5
[4] = Table 2 dose response, dose 1%, pH 5.5, vehicle 90% H2O, 6% dipropylene glycol, 4% ethanol
[5] = Table 2 dose response, dose 5%, pH 6.5, vehicle 90% H2O, 6% dipropylene glycol, 4% ethanol
[6] = Table 2 dose response, dose 7.5%, pH 6.5, vehicle 90% H2O, 6% dipropylene glycol, 4% ethanol

SMILES: CSCCC(C)(N)C(=O)O (racemic) [α-methyl-DL-methionine]
- % Inhibition of hair growth [1, 3]: 31 ± 7%
- Treated (mg) hair mass [1, 3]: 1.10 ± .15 mg

SMILES: CC(C)C[C@H](N)CO [L-leucinol]
- inhibition of leucine incorporation [2]: 18%

SMILES: N[C@@H](CSC(c1ccccc1)(c1ccccc1)c1ccccc1)C(=O)O [S-trityl-L-cysteine]
- % Inhibition of hair growth [1, 4]: 35 ± 9%
- Treated (mg) hair mass [1, 4]: 0.88 ± .10 mg
- % Inhibition of hair growth [1, 5]: 56 ± 6%
- Treated (mg) hair mass [1, 5]: 0.90 ± .17 mg
- % Inhibition of hair growth [1, 6]: 80 ± 6%
- Treated (mg) hair mass [1, 6]: 0.35 ± .10 mg
- Dose response of hair growth reduction ([1]; increasing the concentration of the inhibitor in the composition): increased hair growth reduction

SMILES: CC(C)CC(N)C(N)=O (centres unmarked) [lucinamide]
- inhibition of leucine incorporation [2]: 83%
